From patent US5643958A, “Substituted amide derivatives” (Banyu Pharmaceutical Co., Ltd., priority 1994, dated 1997)

What was measured:
[1] = biological target: T1, protein-farnesyl transferase (PFT) (Rattus norvegicus, UniProt Q02293+Q04631); assay: Inhibitory activities against protein-farnesyl transferase (PFT); type: biochemical; conditions: PFT derived from rat brain; 37° C.; preincubation 10 minutes, reaction 20 minutes; read-out: 50% inhibitory concentrations against PFT activities, IC50
T1 construct: a soluble fraction of rat's brain was fractionated; from tissue; host or cells: rat brain, soluble fraction; 30-50% ammonium sulfate cut, dialysis, Q-Sepharose column
Procedure: PFT was separated in such a manner that a soluble fraction of rat's brain was fractionated by means of 30%-50% saturated ammonium sulfate, further dialyzed and then subjected to column chromatography by Q-cephalose™ (manufactured by Pharmacia) (Reiss et al, Cell, vol. 62, p. 81-88 (1990)).
Measurement of PFT activities was conducted by using, as a prenyl acceptor, H-ras protein or a substance that biotin was added to N-terminal of a peptide corresponding to a 7 amino acid residue at C terminal of K-rasB protein (biotin-added Lys-Thr-Ser-Cys-Val-Ile-Met) and, as a prenyl doner, [^3 H]-labeled farnesylpyrophosphate (FPP) (Reiss et al, Methods: A Companion to a Methods in Enzymology, vol. 1, No. 3, p. 241-245 (1990)).
The [^3 H]-labeled farnesylpyrophosphate (22.5 Ci/mmol) was purchased from New England Nuclear Co. Non-labeled farnesylpyrophosphate was chemically synthesized from ditriethylammonium phosphate, trans-trans-farnesol and trichloroacetonitrile and purified by XAD-2-resin column and diethylaminoethylcellulose (Cornforth et al, Methods in Enzymology, vol. 15, p. 385-390 (1969)).
H-ras protein was expressed in Escherichia coli and purified (Gibbs et al, Proc. Natl. Acad. Sci., vol. 81, p. 5704-5708 (1984)).
The PFT reaction solution containing H-ras protein as the prenyl acceptor was 25 μl, and its composition was 50 mM Hepes pH7.5/50 μM ZnCl2 /5 mM MGCl2 /20 mM KCl/5mM DTT/0.6 μM all trans [^3 H]-farnesylpyrophosphate/25 μM H-ras protein/PFT derived from rat brain (Q-sephalose fraction). The reaction temperature was 37° C., the preincubation time was 10 minutes, and the reaction time was 20 minutes. […]
The enzymatic reaction product containing H-ras protein as the prenyl acceptor, was analyzed by SDS-PAGE (sodium dodecylsulfate/polyacrylamide gel electrophoresis). […]
The measurement of PFT activities using H-ras protein as the prenyl receptor, was also analyzed by a rapid separate method. […]

[2] = test system: farnesyl-modification of Ras protein; assay: Inhibitory activities against farnesyl-modification of Ras protein in NIH3T3 cells transformed by activated ras gene; type: cell-based; conditions: Mus musculus, 24 hours, read-out: 50% inhibitory concentrations against farnesyl-modification of Ras protein, IC50
Procedure: Using the compounds of the present invention, inhibitory activities against farnesyl-modification of Ras protein in NIH3T3 cells transformed by activated ras gene, were measured.
The NIH3T3 cells transformed by activated ras gene, were seeded on a culture plate and cultured for 3 days. Then, a compound of the preset invention in a predetermined concentration was added to the culture. In accordance with the method disclosed in J. Biol. Chem., vol. 268, p. 18415 (1993), the cells were cultured for 24 hours and then taken off from the plate, and the cells were dissolved. After centrifugal separation for 5 minutes under 12000 g, the supernatant was used as a cell extract. The cell extract was subjected to SDS polyacrylamide gel electrophoresis to separate farnesyl-modified Ras protein and non-farnesyl-modified Ras protein. The protein on the gel was transferred onto a nitrocellulose membrane, and an anti-Ras protein antibody was reacted as a probe (primary antibody reaction). An anti-primary antibody, a peroxidase inclusion (secondary antibody), was reacted, and then Ras protein was detected by a chemical fluorescence enhancing kit. The proportion of non-farnesyl-modified Ras protein was quantified by a densitometer and taken as the inhibitory activity.
The 50% inhibitory concentrations (IC50 values) of the compounds of the present invention against farnesyl-modification of Ras protein are shown in Table 2.

NIH/ras cells = assay: Antitumor effects to transformed cells (NIH/ras) using active type human Ha-ras, cells transplanted subcutaneously to a nude mouse; type: in vivo; conditions: once a day day 1 to 6; for Growth inhibition: day 7; for Weight of tumor, Average (g) ± standard deviation: tumor weighed day 7, control 0.22 ± 0.07
Description: (Antitumor effects to transformed cells (NIH/ras) using active type human Ha-ras)
^1) Tumor inoculation: 10^6 cells were transplanted subcutaneousl
^2) Dose: Each dose was intraperitonealy administered once a day from
the first day to the sixth day after the inoculation of the cells.
^3) Weight of tumor: On the seventh day after inoculation of the
cells, the tumors were weighed.
^4) Growth inhibition: (1(average weight of tumor of the treated
group/average weight of tumor of the control group)) × 100
*and **: Statistical analysis by ttest are 5% and 1%, respectively.

[3] = 10 mg/kg/injection intraperitoneal

SMILES: C[C@H]([C@H](C/C=C/c1nc2ccccc2o1)c1ccc2c(c1)OCO2)N(Cc1ccc2ccccc2c1)C(=O)CC(C(=O)O)C(CC(=O)O)C(=O)O (mixture of isomers) [Example 45, 4-[N-{(1RS,2RS,4E)-5-(2-benzoxazolyl)-1-methyl-2-(3,4-methylenedioxyphenyl)-4-pentenyl}-N-(2-naphthylmethyl)carbamoyl]-1,2,3-butanetricarboxylic Acid]
- IC50 [1]: 0.15 nM
- IC50 [2]: 7700 nM

SMILES: C[C@H]([C@H](C/C=C/c1nc2ccccc2o1)c1ccc2c(c1)OCO2)N(Cc1ccc2ccccc2c1)C(=O)C(O)=C(CC(=O)O)C(=O)OC(C)(C)C [Example 69, 4-[N-{(1R,2R,4E)-5-(2-benzoxazolyl)-1-methyl-2-(3,4-methylenedioxyphenyl)-4-pentenyl}-N-(2-naphthylmethyl)carbamoyl]-3-tert-butoxycarbonyl-4-hydroxy-3-butenoic Acid]
- IC50 [2]: 4500 nM
- Growth inhibition (NIH/ras cells; [3]): 23%
- Weight of tumor, Average (g) ± standard deviation (NIH/ras cells; [3]): 0.17 ± 0.09 g
- Growth inhibition (NIH/ras cells; 30 mg/kg/injection intraperitoneal): 59%
- Weight of tumor, Average (g) ± standard deviation (NIH/ras cells; 30 mg/kg/injection intraperitoneal, ** t-test 1%): 0.09 ± 0.05 g

SMILES: COC(=O)c1ccc([C@H](C/C=C/c2nc3ccccc3o2)[C@H](C)N(Cc2ccc3sccc3c2)C(=O)C[C@@H](CC(=O)O)C(=O)O)cc1 (relative stereo) [Example 34, (2R^*)-2-[N-(5-benzo[b]thienylmethyl)-N-{(1RS,2RS,4E)-5-(2-benzoxazolyl)-2-(4-methoxycarbonylphenyl)-1-methyl-4-pentenyl}carbamoylmethyl]succinic Acid]
- IC50 [1]: 0.53 nM

SMILES: C[C@H]([C@H](C/C=C/c1nc2ccccc2o1)c1ccc2c(c1)OCO2)N(Cc1ccc2ccccc2c1)C(=O)CC(CC(=O)O)(C(=O)O)C(=O)O (racemic) [Example 46, 3-[N-{(1RS,2RS,4E)-5-(2-benzoxazolyl)-1-methyl-2-(3,4-methylenedioxyphenyl)-4-pentenyl}-N-(2-naphthylmethyl)-carbamoyl]-1,2,2-propanetricarboxylic Acid]
- IC50 [2]: 18000 nM

SMILES: CC(C(CC=Cc1nc2ccccc2o1)c1ccc2c(c1)OCO2)N(Cc1ccc2ccccc2c1)C(=O)C(O)CCC(=O)O (stereo not drawn) [Example 59, Sodium 4-[N-{(1RS,2RS,4E)-5-(2-benzoxazolyl)-1-methyl-2-(3,4-methylenedioxyphenyl)-4-pentenyl}-N-(2-naphthylmethyl)]carbamoyl-4-hydroxybutanoate]
- IC50 [1]: 0.46 nM
